Assays:
[1] = test system: sea urchins (Lytechinus pictus) sperms; test: Sea urchin sperm motility by video microscopy / CASA; type: cell-based
[2] = test system: sea urchins (Lytechinus pictus) sperms; test: as above; type: cell-based; conditions: control = 100%
Protocol: Sperms originating from ripe sea urchins (Lytechinus pictus) showing genetic and functional similarity to human and animal sperms are used (R. Felix: Reproduction 129, 251-262 (2005).
(§1) Animals were washed by sequential immersion into 100 ml cold (approximately 5° C.) sperm storage buffer (SSB) pH 6.0. Used SSB composition: 50 mmol/L KCl, 5.0 mmol/L N-tris(hydroxymethyl)methyl-3-aminopropanesulphonic acid (TAPS), 425 mmol/L NaCl, 27 mmol/L MgCl2, 29 mmol/L MgSO4, 10 mmol/L CaCl2 and 2.4 mmol/L NaHCO3. Shedding of gametes was induced by intracoelomic injection of 2.0 ml cold 0.5 mol/L KCl through several sites on the peristomial membrane of the oral side. Sperm were collected by inverting male sea urchins over beakers containing approximately 100 ml cold MES sperm storage buffer (MSSB) pH 6.0. Used MSSB composition: 50 mmol/L KCl, 5.0 mM 2-[N-morpholino]ethanesulphonic acid (MES), 5.0 mmol/L TAPS, 425 mmol/L NaCl, 27 mmol/L MgCl2, 29 mmol/L MgSO4, 10 mmol/L CaCl2 and 2.4 mmol/L NaHCO3. A pool of sperm from several animals was made to minimize individual variations. Sperms were incubated in room temperature for 20 min. in 0.1-10 ml fractions diluted with 0.1-1000 ml activation buffer (ASW) pH 8.3. ASW composition: 50 mmol/L KCl, 5.0 mmol/L TAPS, 425 mmol/L NaCl, 27 mmol/L MgCl2, 29 mmol/L MgSO4, 10 mmol/L CaCl2, 2.4 mmol/L NaHCO3 and 1.0 mg/ml bovine serum albumin (BSA). The activation buffer contains the appropriate metal ions in a given concentration. […] Metal ions were used as Cl^− salts. Video microscopy was performed at room temperature (22° C.) using a Nikon Diaphot inverted microscope with 20× BM phase objective and 1× video adapter connected to a Dage CCD72 camera. […] The video signal was sent via a video time clock to a Panasonic VHS video recorder. Motility was recorded on multiple viewing fields for 15 sec per field until the recorded total sperm number reached 400. Video tapes were analyzed using CellTrack system. Measurements were carried out in triplicates. Sperm motility is expressed in %, where control values represent 100% (Bracho et al.: “A Method for Preparation, Storage and Activation of Large Populations of Immotile Sea Urchin Sperm”, BBRC 237, 59-62 (1997)).
(§2) Measurements are carried out using CASA (Computer Assisted Sperm Analysis) method within 12 hours following sperm collection or ejaculation.

[3] = test system: human sperm from ejaculates of healthy donors; test: Human sperm motility by video microscopy / CASA; type: cell-based; conditions: control = 100%
Protocol: as §1
Sperms originating from ejaculates (2.0-5.0 ml) of healthy donors are diluted with 2.0-1000 ml cold MSSB buffer following liquidification and homogenized without modification of motility. From this point, sample handling and motility measurement is carried out as described in example#1.
as §2

sea urchin sperm = test: Sea urchin sperm motility time course: storage in high Ni^2+, then 100-fold dilution; type: cell-based, Lytechinus pictus; conditions: time point 0 = 100%
Protocol: as §1
a) Preparations of sea urchin sperm are produced as described in example 1. Motility measurements are carried out in predetermined time points as described in example#1 starting from time point 0. The activation buffer at time point 0 is supplemented with 20 mmol/L Ni^2+ as NiCl2. After 4 hours, sperm suspensions are diluted 100-fold with activation buffer, achieving 200 μmol/L final Ni^2+ concentration. Measurements of motility are carried out further. Sperm motility is expressed in %, where control values at time point 0 represent 100%.

SMILES	motility (%) ([2]; 1 μmol/L metal ion)	motility (%) ([2]; 10 μmol/L metal ion)	motility (%) ([2]; 100 μmol/L metal ion)	motility (%) ([2]; 1 mmol/L metal ion)	motility (%) ([2]; 10 mmol/L metal ion)	motility (%) ([3]; 1 μmol/L metal ion)	motility (%) ([3]; 10 μmol/L metal ion)	motility (%) ([3]; 100 μmol/L metal ion)	motility (%) ([3]; 1 mmol/L metal ion)	motility (%) ([3]; 10 mmol/L metal ion)	further results
[Cd+2] [Cd^2+]	–	–	–	–	–	–	–	–	–	–	motility (%) ([1]; 3.5 μmol/L Cd^2+, control printed as 64.0): 49.1%
[Co+2] [Co^2+]	108.6%	118.2%	127.5%	101.1%	92.9%	106.2%	112.7%	122.5%	98.2%	91.0%	–
[Ni+2] [Ni^2+]	111.4%	127.3%	132.0%	98.6%	85.2%	105.7%	126.9%	129.5%	93.2%	88.9%	motility (%) (sea urchin sperm; time 0:20, 20 mmol/L Ni^2+): 99.0%; motility (%) (sea urchin sperm; time 1:00, 20 mmol/L Ni^2+): 85.7%; motility (%) (sea urchin sperm; time 2:00, 20 mmol/L Ni^2+): 86.8%; motility (%) (sea urchin sperm; time 3:00, 20 mmol/L Ni^2+): 81.6%; motility (%) (sea urchin sperm; time 4:00, 20 mmol/L Ni^2+): 76.3%; motility (%) (sea urchin sperm; time 4:20, after 100-fold dilution at 4 hours to 200 μmol/L Ni^2+): 102.6%; motility (%) (sea urchin sperm; time 5:00, after 100-fold dilution at 4 hours to 200 μmol/L Ni^2+): 119.0%; motility (%) (sea urchin sperm; time 6:00, after 100-fold dilution at 4 hours to 200 μmol/L Ni^2+): 123.5%; motility (%) (sea urchin sperm; time 7:00, after 100-fold dilution at 4 hours to 200 μmol/L Ni^2+): 123.0%; motility (%) (sea urchin sperm; time 8:00, after 100-fold dilution at 4 hours to 200 μmol/L Ni^2+): 120.6%
[Zn+2] [Zn^2+]	–	–	–	–	–	–	–	–	–	–	motility (%) ([1]; 16 μmol/L Zn^2+, control printed as 64.3): 51.0%
